Patent publication US6596500B1, “Binding of retinoids to M6P/IGF-II receptor” (The General Hospital Corporation, priority 1998, dated 2003)
“Also recorded” adds a separate entry of the source.

Key:
[1] = molecular target: T1, M6P/IGF-II receptor (Rattus norvegicus, UniProt G3V824); experiment: Endocytosis of exogenous β-glucuronidase in cultured cardiac myocytes; assay type: cell-based
T1 construct: cultured neonatal rat cardiac myocytes, which were known to express high levels of the M6P/IGF-II receptor; endogenous in cells; host or cells: primary neonatal rat cardiac myocytes
Procedure: FIG. 4 is a histogram summarizing data on the effect of RA on the endocytosis of exogenous β-glucuronidase. Myocytes were incubated for 2 h at 37°0 C. with 1 ml of MEM containing 10,000 units of human β-glucuronidase, and with or without 5 mM mannose 6-phosphate, in the presence or absence of 2 μM RA. Following the incubation, the internalized human β-glucuronidase was determined as described in the Methods.
The primary functions of the Man-6-P/IGF-II receptor are to mediate endocytosis of extracellular M6P-containing proteins (e.g. lysosomal enzymes) and IGF-II and to sort newly synthesized lysosomal enzymes. Therefore, an important question raised by the direct interaction of RA with M6P/IGF2R is whether RA influences these functions of the receptor. To answer this question, we examined the effect of RA on endocytosis of exogenous β-glucuronidase and ^125I-IGF-II and intracellular activity of acid phosphatase in cultured neonatal rat cardiac myocytes, which were known to express high levels of the M6P/IGF-II receptor (Nissley et al., 1993, Mol. Reprod. Dev. 35:408-413). […] This indicated an increased sorting of lysosomal enzymes) (FIGS. 4-6). […]
Endocytosis of extracellular β-glucuronidase was determined as described by Kyle et al., 1988, J. Biol. Chem. 263:16230-16235. […]

[2] = tested on: neonatal rat fibroblasts; experiment: Immunofluorescence of cathepsin B distribution in fibroblasts; assay type: cell-based; conditions: RA 1 μM for 3 h; neonatal rat fibroblasts
Description: FIGS. 8A and 8B are photomicrographs showing effect of retinoic acid on the distribution of cathepsin B in neonatal rat fibroblasts. […] The enzyme was found mainly in the perinuclear area. […] Bar represents 4 μm.
Since biosynthetic transport of lysosomal enzymes from the TGN to endosomes/lysosomes is mainly mediated by the M6P/IGF2R (Sohar et al., 1998, Biochem. J. 330:903-908), an enhanced trafficking of the receptor should lead to an increased translocation of the M6P-containing lysosomal enzymes from the TGN to lysosomes. To test this, we examined the effect of RA on the intracellular distribution of cathepsin B, a lysosomal protease known to be transported in a M6P-dependent manner in fibroblasts (Hanewinkel et al., 1987, J. Diol. Chem. 262:12351-12355). […] The distribution was similar to that of M6P/IGF2R (shift from perinuclear area to cytoplasmic vesicles throughout the cytoplasm).
Intracellular Trafficking Materials Retinoic acid was obtained from Sigma Chem. Co. (St. Louis, Mo.). The synthetic retinoids used (AGN193109, TTNPB) were produced by Allergan Inc. (Irvine, Calif.). Stably-transfected P388D1 cells re-expressing the M6P/IGF2R were provided by Dr. William S. Sly (St. Louis University). The rabbit polyclonal antibody against the rat M6P/IGF-II receptor was a gift from Dr. R.G. MacDonald (University of Nebraska). […]

T1 sequence (G3V824 36-2481): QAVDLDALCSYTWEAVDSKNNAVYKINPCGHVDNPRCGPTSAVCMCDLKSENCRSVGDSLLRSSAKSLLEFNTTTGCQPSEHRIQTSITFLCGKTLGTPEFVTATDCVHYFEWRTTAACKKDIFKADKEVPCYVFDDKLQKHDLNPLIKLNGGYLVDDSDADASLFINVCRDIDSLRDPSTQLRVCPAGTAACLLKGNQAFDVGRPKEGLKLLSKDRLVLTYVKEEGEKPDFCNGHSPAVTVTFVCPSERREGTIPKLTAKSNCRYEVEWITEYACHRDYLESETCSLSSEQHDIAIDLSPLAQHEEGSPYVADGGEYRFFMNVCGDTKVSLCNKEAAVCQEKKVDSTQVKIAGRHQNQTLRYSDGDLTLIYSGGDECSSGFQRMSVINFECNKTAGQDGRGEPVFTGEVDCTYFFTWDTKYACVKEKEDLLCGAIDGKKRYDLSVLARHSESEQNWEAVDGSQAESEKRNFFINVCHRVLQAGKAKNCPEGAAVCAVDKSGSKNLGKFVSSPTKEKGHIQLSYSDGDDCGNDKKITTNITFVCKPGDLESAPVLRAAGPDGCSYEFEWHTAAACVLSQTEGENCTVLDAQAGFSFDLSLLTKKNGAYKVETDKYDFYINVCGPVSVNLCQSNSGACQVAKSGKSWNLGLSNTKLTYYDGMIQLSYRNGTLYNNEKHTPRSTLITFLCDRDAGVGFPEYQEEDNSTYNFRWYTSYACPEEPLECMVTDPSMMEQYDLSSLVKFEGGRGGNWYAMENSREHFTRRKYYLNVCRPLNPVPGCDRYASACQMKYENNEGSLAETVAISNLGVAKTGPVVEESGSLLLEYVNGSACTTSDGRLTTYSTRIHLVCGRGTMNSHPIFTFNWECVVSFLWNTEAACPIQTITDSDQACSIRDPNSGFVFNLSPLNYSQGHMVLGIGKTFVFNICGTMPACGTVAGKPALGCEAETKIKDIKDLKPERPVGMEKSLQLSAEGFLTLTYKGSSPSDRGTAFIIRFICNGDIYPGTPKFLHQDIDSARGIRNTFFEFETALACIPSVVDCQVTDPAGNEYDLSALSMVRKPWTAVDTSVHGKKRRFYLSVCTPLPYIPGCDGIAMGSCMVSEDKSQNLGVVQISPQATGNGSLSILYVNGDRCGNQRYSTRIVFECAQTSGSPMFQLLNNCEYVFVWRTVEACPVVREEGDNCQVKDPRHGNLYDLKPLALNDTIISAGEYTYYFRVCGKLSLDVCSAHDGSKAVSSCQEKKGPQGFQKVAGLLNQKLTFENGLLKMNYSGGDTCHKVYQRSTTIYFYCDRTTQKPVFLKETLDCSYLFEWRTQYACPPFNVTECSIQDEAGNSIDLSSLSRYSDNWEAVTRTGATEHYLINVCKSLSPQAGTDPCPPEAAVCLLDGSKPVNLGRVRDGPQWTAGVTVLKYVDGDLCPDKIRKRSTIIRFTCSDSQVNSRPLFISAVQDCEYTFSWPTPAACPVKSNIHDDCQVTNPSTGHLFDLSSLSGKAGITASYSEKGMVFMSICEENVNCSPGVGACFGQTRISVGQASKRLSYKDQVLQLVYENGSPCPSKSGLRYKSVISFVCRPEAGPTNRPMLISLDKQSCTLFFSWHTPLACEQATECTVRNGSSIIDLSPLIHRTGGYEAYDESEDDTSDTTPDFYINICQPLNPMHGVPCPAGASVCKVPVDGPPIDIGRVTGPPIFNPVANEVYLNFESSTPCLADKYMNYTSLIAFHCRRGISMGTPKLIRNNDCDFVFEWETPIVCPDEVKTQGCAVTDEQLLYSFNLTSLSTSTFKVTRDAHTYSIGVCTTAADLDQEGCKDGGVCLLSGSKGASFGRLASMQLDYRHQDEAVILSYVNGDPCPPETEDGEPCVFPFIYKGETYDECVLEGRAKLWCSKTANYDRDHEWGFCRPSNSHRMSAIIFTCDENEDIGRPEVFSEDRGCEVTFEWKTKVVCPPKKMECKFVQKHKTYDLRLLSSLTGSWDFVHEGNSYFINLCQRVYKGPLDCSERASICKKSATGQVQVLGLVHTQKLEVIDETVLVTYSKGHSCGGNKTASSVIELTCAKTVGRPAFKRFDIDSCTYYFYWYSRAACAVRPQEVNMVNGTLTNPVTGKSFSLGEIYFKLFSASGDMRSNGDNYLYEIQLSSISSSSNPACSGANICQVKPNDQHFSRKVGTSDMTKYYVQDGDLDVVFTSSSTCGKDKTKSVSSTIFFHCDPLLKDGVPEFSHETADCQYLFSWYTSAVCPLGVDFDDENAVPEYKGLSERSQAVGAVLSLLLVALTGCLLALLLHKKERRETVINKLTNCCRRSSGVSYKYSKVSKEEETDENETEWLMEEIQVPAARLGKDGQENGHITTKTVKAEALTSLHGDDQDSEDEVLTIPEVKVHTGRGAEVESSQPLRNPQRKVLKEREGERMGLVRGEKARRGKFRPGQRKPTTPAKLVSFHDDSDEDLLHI

`CC1=C(/C=C/C(C)=C/C=C/C(C)=C/C(=O)O)C(C)(C)CCC1` [RA, all-trans-retinoic acid] was tested, and the “Effects of RA on endocytosis, IGF-II internalization and acid phosphatase with protein synthesis inhibitor” value ([1]; RA 2 μM plus 0.5 mM cycloheximide) was “not altered”, the “M6P-inhibitable endocytosis of β-glucuronidase” value ([1]; RA 2 μM, 2 h at 37° C.) was “almost doubled” and the “Intracellular distribution of cathepsin B” value [2] was “translocated from the perinuclear area to the cytoplasmic vesicles; also recorded: remarkable change in cathepsin B distribution”.
